Patent US4396613A, “23-Ester derivatives of DMT and method of using same” (Eli Lilly and Company, priority 1981, dated 1983)
≈ marks a conversion by molar mass, not a printed value.

What was measured:
Type in all cases: cell-based
[1] = test system: Staphylococcus aureus V41; assay: standard agar-dilution assay (MIC); conditions: Staphylococcus aureus V41, penicillin-resistant strain, unit assumed
Procedure: (§1) The MIC's in Table II were determined by standard agar-dilution assays. The MIC's in Table III were obtained using a conventional broth-dilution microtiter test.
^b Penicillinresistant strain

[2] = test system: Staphylococcus epidermidis EPI2; assay: standard agar-dilution assay (MIC); conditions: unit assumed
Procedure: as §1

[3] = test system: Staphylococcus aureus X1.1; assay: standard agar-dilution assay (MIC); conditions: unit assumed
Procedure: as §1

Streptococcus Group 9960 = assay: standard agar-dilution assay (MIC); conditions: unit assumed
Procedure: as §1

[4] = test system: Streptococcus pyogenes C203; assay: standard agar-dilution assay (MIC); conditions: unit assumed
Procedure: as §1

[5] = test system: Haemophilus influenzae Holt; assay: standard agar-dilution assay (MIC); conditions: ampicillin-sensitive strain, unit assumed
Procedure: as §1

[6] = test system: Streptococcus Group D X66; assay: standard agar-dilution assay (MIC); conditions: unit assumed
Procedure: as §1

[7] = test system: Staphylococcus aureus S13E; assay: standard agar-dilution assay (MIC); conditions: unit assumed
Procedure: as §1

[8] = test system: Haemophilus influenzae R252; assay: standard agar-dilution assay (MIC); conditions: Haemophilus influenzae R252, ampicillin-resistant strain, unit assumed
Procedure: as §1

[9] = test system: Staphylococcus epidermidis EPI1; assay: standard agar-dilution assay (MIC); conditions: unit assumed
Procedure: as §1

[10] = test system: Streptococcus pneumoniae Park I; conditions: agar dilution, unit assumed
Procedure: as §1

[11] = test system: Staphylococcus aureus X400; assay: standard agar-dilution assay (MIC); conditions: Staphylococcus aureus X400, methicillin-resistant strain, unit assumed
Procedure: as §1
^c Methicillinresistant-strain

Streptococcus sp. 80 = assay: conventional broth-dilution microtiter test (MIC); conditions: unit assumed
Procedure: as §1

Mycoplasma synoviae = assay: conventional broth-dilution microtiter test (MIC); conditions: unit assumed
Procedure: as §1

Staphylococcus aureus = assay: conventional broth-dilution microtiter test (MIC); conditions: unit assumed
Procedure: as §1

[12] = test system: Pasteurella multocida 17E; assay: conventional broth-dilution microtiter test (MIC); conditions: bovine isolate, unit assumed
Procedure: as §1

[13] = test system: Pasteurella multocida 60A; assay: conventional broth-dilution microtiter test (MIC); conditions: avian isolate, unit assumed
Procedure: as §1

Mycoplasma hyorhinis = assay: conventional broth-dilution microtiter test (MIC); conditions: unit assumed
Procedure: as §1

Mycoplasma gallisepticum = assay: conventional broth-dilution microtiter test (MIC); conditions: unit assumed
Procedure: as §1

Row | Structure (SMILES) | MIC [1] | MIC [2] | MIC [3] | MIC (Streptococcus Group 9960) | MIC [4] | MIC [5] | MIC [6] | MIC [7] | MIC [8] | MIC [9] | MIC [10] | MIC [11] | MIC (Streptococcus sp. 80) | MIC (Mycoplasma synoviae) | MIC (Staphylococcus aureus) | MIC [12] | MIC [13] | MIC (Mycoplasma hyorhinis) | MIC (Mycoplasma gallisepticum)
1 | CCC1OC(=O)CC(O)C(C)C(OC2OC(C)C(OC3CC(C)(O)C(O)C(C)O3)C(N(C)C)C2O)C(CC=O)CC(C)C(=O)C=CC(C)=CC1COC(=O)Cc1ccccc1 (stereo not drawn) [Compound 10, 23-O-Phenylacetyl-DMT] | 0.5 µg/mL (≈ 0.581 µM) | 0.5 µg/mL (≈ 0.581 µM) | 0.25 µg/mL (≈ 0.291 µM) | 0.25 µg/mL (≈ 0.291 µM) | 0.125 µg/mL (≈ 0.145 µM) | 2 µg/mL (≈ 2.33 µM) | 0.5 µg/mL (≈ 0.581 µM) | 0.25 µg/mL (≈ 0.291 µM) | 2 µg/mL (≈ 2.33 µM) | 0.5 µg/mL (≈ 0.581 µM) | 0.03 µg/mL (≈ 0.0349 µM) | 0.5 µg/mL (≈ 0.581 µM) | 0.097 µg/mL (≈ 0.113 µM) | ≤ 0.048 µg/mL | 0.78 µg/mL (≈ 0.907 µM) | 1.56 µg/mL (≈ 1.81 µM) | 3.12 µg/mL (≈ 3.63 µM) | 1.56 µg/mL (≈ 1.81 µM) | ≤ 0.048 µg/mL
2 | CCC1OC(=O)CC(O)C(C)C(OC2OC(C)C(OC3CC(C)(O)C(O)C(C)O3)C(N(C)C)C2OC(C)=O)C(CC=O)CC(C)C(=O)C=CC(C)=CC1COC(=O)C=Cc1ccccc1 (stereo not drawn) [Compound 11] | 0.5 µg/mL (≈ 0.547 µM) | 4 µg/mL (≈ 4.38 µM) | 1 µg/mL (≈ 1.09 µM) | 2 µg/mL (≈ 2.19 µM) | 1 µg/mL (≈ 1.09 µM) | 128 µg/mL (≈ 140 µM) | 2 µg/mL (≈ 2.19 µM) | 1 µg/mL (≈ 1.09 µM) | 128 µg/mL (≈ 140 µM) | 1 µg/mL (≈ 1.09 µM) | 0.25 µg/mL (≈ 0.273 µM) | 2 µg/mL (≈ 2.19 µM) | 0.78 µg/mL (≈ 0.853 µM) | 3.12 µg/mL (≈ 3.41 µM) | 1.56 µg/mL (≈ 1.71 µM) | 12.5 µg/mL (≈ 13.7 µM) | > 50 µg/mL | 6.25 µg/mL (≈ 6.84 µM) | 0.39 µg/mL (≈ 0.427 µM)
3 | CCC1OC(=O)CC(O)C(C)C(OC2OC(C)C(OC3CC(C)(O)C(O)C(C)O3)C(N(C)C)C2OC(=O)Cc2ccccc2)C(CC=O)CC(C)C(=O)C=CC(C)=CC1COC(=O)Cc1ccccc1 (stereo not drawn) [Compound 17] | 1 µg/mL (≈ 1.02 µM) | 1 µg/mL (≈ 1.02 µM) | 1 µg/mL (≈ 1.02 µM) | 1 µg/mL (≈ 1.02 µM) | 0.5 µg/mL (≈ 0.511 µM) | > 128 µg/mL | 1 µg/mL (≈ 1.02 µM) | 1 µg/mL (≈ 1.02 µM) | > 128 µg/mL | 1 µg/mL (≈ 1.02 µM) | 0.125 µg/mL (≈ 0.128 µM) | 2 µg/mL (≈ 2.04 µM) | 0.78 µg/mL (≈ 0.797 µM) | 1.56 µg/mL (≈ 1.59 µM) | 0.78 µg/mL (≈ 0.797 µM) | 6.25 µg/mL (≈ 6.39 µM) | 25 µg/mL (≈ 25.6 µM) | 6.25 µg/mL (≈ 6.39 µM) | 0.78 µg/mL (≈ 0.797 µM)
4 | CCC1OC(=O)CC(O)C(C)C(OC2OC(C)C(OC3CC(C)(O)C(O)C(C)O3)C(N(C)C)C2OC(C)=O)C(CC=O)CC(C)C(=O)C=CC(C)=CC1COC(=O)CCCCc1ccccc1 (stereo not drawn) [Compound 18] | 2 µg/mL (≈ 2.12 µM) | 2 µg/mL (≈ 2.12 µM) | 1 µg/mL (≈ 1.06 µM) | 1 µg/mL (≈ 1.06 µM) | 0.5 µg/mL (≈ 0.53 µM) | > 128 µg/mL | 2 µg/mL (≈ 2.12 µM) | 1 µg/mL (≈ 1.06 µM) | > 128 µg/mL | 1 µg/mL (≈ 1.06 µM) | 0.125 µg/mL (≈ 0.132 µM) | 2 µg/mL (≈ 2.12 µM) | 0.78 µg/mL (≈ 0.826 µM) | 6.25 µg/mL (≈ 6.62 µM) | 1.56 µg/mL (≈ 1.65 µM) | 50 µg/mL (≈ 53 µM) | > 50 µg/mL | 12.5 µg/mL (≈ 13.2 µM) | < 0.05 µg/mL
5 | CCC1OC(=O)CC(O)C(C)C(OC2OC(C)C(OC3CC(C)(O)C(O)C(C)O3)C(N(C)C)C2OC(C)=O)C(CC=O)CC(C)C(=O)C=CC(C)=CC1COC(=O)Cc1cc(OC)ccc1OC (stereo not drawn) [Compound 20] | 0.5 µg/mL (≈ 0.52 µM) | 0.5 µg/mL (≈ 0.52 µM) | 0.5 µg/mL (≈ 0.52 µM) | 2 µg/mL (≈ 2.08 µM) | 0.25 µg/mL (≈ 0.26 µM) | 32 µg/mL (≈ 33.3 µM) | 0.5 µg/mL (≈ 0.52 µM) | 0.5 µg/mL (≈ 0.52 µM) | 16 µg/mL (≈ 16.6 µM) | 0.5 µg/mL (≈ 0.52 µM) | 0.06 µg/mL (≈ 0.0624 µM) | 0.5 µg/mL (≈ 0.52 µM) | 0.195 µg/mL (≈ 0.203 µM) | 0.39 µg/mL (≈ 0.405 µM) | 0.78 µg/mL (≈ 0.811 µM) | 12.5 µg/mL (≈ 13 µM) | 25 µg/mL (≈ 26 µM) | 1.56 µg/mL (≈ 1.62 µM) | 0.195 µg/mL (≈ 0.203 µM)
6 | CCC1OC(=O)CC(O)C(C)C(OC2OC(C)C(OC3CC(C)(O)C(O)C(C)O3)C(N(C)C)C2OC(C)=O)C(CC=O)CC(C)C(=O)C=CC(C)=CC1COC(=O)n1ccnc1 (stereo not drawn) [Compound 21] | 2 µg/mL (≈ 2.28 µM) | 2 µg/mL (≈ 2.28 µM) | 1 µg/mL (≈ 1.14 µM) | 1 µg/mL (≈ 1.14 µM) | 0.5 µg/mL (≈ 0.569 µM) | 16 µg/mL (≈ 18.2 µM) | 2 µg/mL (≈ 2.28 µM) | 1 µg/mL (≈ 1.14 µM) | 8 µg/mL (≈ 9.11 µM) | 2 µg/mL (≈ 2.28 µM) | 0.125 µg/mL (≈ 0.142 µM) | 2 µg/mL (≈ 2.28 µM) | 0.78 µg/mL (≈ 0.888 µM) | 0.78 µg/mL (≈ 0.888 µM) | 6.25 µg/mL (≈ 7.12 µM) | 12.5 µg/mL (≈ 14.2 µM) | 12.5 µg/mL (≈ 14.2 µM) | 1.56 µg/mL (≈ 1.78 µM) | 0.78 µg/mL (≈ 0.888 µM)
